Source: patent US10212958B2, “Method for producing stabilized whole wheat flour” (Intercontinental Great Brands LLC, priority 2011, dated 2019)
Several values for one entry are separate records, joined by “and”; a condition that tells them apart may be missing. Identical values can stand only once. Each block holds one compound with its values, some of them ahead of it.

What was measured:
[1] = system: free fatty acids formed in whole grain flour; test: Free fatty acid content of whole grain flour, fresh and after accelerated storage (SPE, GC-FID); parameters: species or system wheat
Protocol: The objective of this example was to test the effect of acid tempering on the stability of whole grain flour during storage. The amount of free fatty acid formed was measured after flour storage in a sealed glass jar for 30 days under accelerated storage conditions of 92° F. […] The flours tested were: […] Results were compared to the amount of free fatty acids formed in untreated control flour. Whole grain flours were made with natural proportion of bran component and endosperm obtained from the flour mill. Whole grain flour ash content was used to confirm composition. Free fatty acid content of whole grain flour (fresh flour and 30 days aged flour) was determined according to the following method: Free fatty acid content of the flours was adapted from the method set forth in “Jong, C.; Badings, H. T.; Journal of High Resolution Chromatography; 1990; Determination of Free Fatty Acids in Milk and Cheese Procedures for Extraction, Clean up, and Capillary Gas Chromatography Analysis”. Lipid extracts, containing free fatty acids, are obtained from foods by extraction with acidified organic solvents. The anhydrous lipid extracts are passed through a weak anion exchange SPE cartridge to isolate the free fatty acids from the coextracted material, particularly neutral glycerides. • a. […] HP5890 Series II] • b. Autosampler compatible with the GC, [example: HP7673] • c. Software system capable of collecting chromatographic data, calculating statistics and tabulating results • d. Analytical balance with 0.0001 g resolution, 150 g capacity • e. Centrifuge capable of 3000 rpm (2050 rcf), with temperature control, (optional) • f. Polytron able to homogenize samples at 25000 rpm [example: Brinkmann Instruments, Polytron Kinematica AG Model PT 1300 D] • g. Vortex Mixer • h. Solvent Dispensers with inert plastic components [example: […] Column: […] SPE cartridges: […] Glass centrifuge test tubes with teflon lined screw caps, size: 16×125 mm • 4. Corex glass centrifuge tubes with teflon lined screw caps, 45 mL [example: COREX II No. 8422-A] • 5. Whatman Filter paper #1, 125 mm Diameter • 6. Pyrex brand filtering funnel, short stem • 7. Disposable Culture Tubes, borosilicate glass 16×150 mm [example: VWR Cat #47729-580] • 8. Glass vials with teflon lined screw caps, 4 mL. [example: Kimble Cat #60940A 4] • 9. Autosampler vials, borosilicate glass, crimp-top with teflon lined caps • 10. Amber borosilicate bottles with teflon lined screw cap, 100 mL • 11. Clear borosilicate bottle with teflon lined screw cap, 250 mL • 12. Graduated cylinders: 250 mL, 100 mL • 13. […] Glass volumetric pipettes class A 5, 2, 1 mL and graduated 10, 5 mL • 15. Disposable Pasteur pipettes: 53⁄4 and 9 inch • 16. Microspatula, spatula, and polypropylene sample transfer tubes Reagents/Solutions Reagents and Standards • 1. Ethanol-200 proof, anhydrous, 99.5%+, stored in amber glass [Aldrich #45, 983-6 or equivalent] • 2. Hexanes-GC grade [B&J #216-4 or equivalent] • 3. iso-Propanol-GC grade [B&J #323-4 or equivalent] • 4. Methyl-tert-butylether (MTBE)-GC grade [B&J #242-4 or equivalent] • 5. Methylene chloride-GC grade [B&J #299-4 or equivalent] • 6. […] Sulfuric acid-ACS reagent, 95.0-98.0% [Fisher Reagent ACS #A800-500 or equivalent] • 8. Water Type 1 [Fisher HPLC #W5-4 or equivalent] • 9. Diatomaceous Earth [Leco part #502-327 or equivalent] • 10. […] Standards (Standard Preparation See Appendix 13.1) • a. Internal Standard: 11:0; Surrogates: 9:0 and 13:0 • b. Matrix Spike (MS) standard working solution in ethanol: MS @ 50 µg/mL. This level may be appropriate for low to mid-level determinations. Generally the FFA levels vary tremendously within a given matrix. Consequently a spike solution of varying amounts per individual FFA may be necessary per matrix. • c. Calibration Standards in hexanes establish linear range: […] Comment: 18:1 and 18:2 calculations are based on 18:0 response factor. • d. […]

[2] = system: Novozyme lipase from Aspergillus oryzae; test: Titrimetric lipase activity after 40 min pre-incubation of the enzyme in acid solution; format: biochemical
Protocol: The objective of this example was to test the effect of acid type and concentration on the lipase activity after pre-incubation of the enzyme for 40 minutes in acid solution. The following acids and levels were tested; (1) 5 ml lactic acid (8 g/1000 ml pH 2.57), add 20 μl lipase and 980 μl water inhibition 40 min; (2) 5 ml lactic acid (2 g/1000 ml pH 2.85), add 20 μl lipase and 980 μl water inhibition 40 min; (3) 5 ml lactic acid (16 g/1000 ml pH 2.48), add 20 μl lipase and 980 μl water inhibition 40 min; (4) 5 ml acetic acid (1 g/1000 ml pH 2.80), add 20 μl lipase and 980 μl water inhibition 40 min; (5) 5 ml HCL (4 g/1000 ml, pH 1.5), add 20 μl lipase and 980 μl water inhibition 40 min; (6) 5 ml green tea extract (8 g/1000 ml), add 20 μl lipase and 980 μl water inhibition 40 min.
Lipase (3.1.1.3) activity was adapted from the method set forth in “Worthington, Von.; The Worthington Manual; 1993 from Worthington Biochemical Corporation, 730 Vassar Avenue, Lakewood, N.J. 08701”.
H. Olive oil-gum Arabic emulsion: Prepare by dissolving 16.5 grams of gum Arabic in 130 ml of reagent grade water. Once the material is in solution, dilute to a final volume of 165 ml with reagent grade water. Add 20 ml of reagent grade olive oil and 15 grams crushed ice. Blend the mixture in a Waring blender at low speed for 3 min and filter the emulsion through glass wool. Prepare fresh daily. Enzyme:
The titration can be measured with a laboratory pH meter (a Corning pH meter 360i equipped with A-58905-66 High-performance combination pH electrode).
Blank rate determination: Adjust the pH of the reaction mixture to 8.0 and record the volume of titrant required to maintain the pH at 8.0 for 3-4 minutes after a constant rate is achieved. Determine the “blank rate” as the volume of titrant added per minute from the final linear portion of the curve.
Sample determination: at zero time, add appropriately diluted enzyme and readjust the pH to 8.0 if necessary. Record the volume of titrant required to maintain the pH at 8.0 for 5-6 minutes. Determine the “sample rate” as the volume of titrant added per minute from the linear portion of the curve.

[3] = Solvent Retention Capacity (SRC) of flour, adapted from AACC 56-10; format: physicochemical; parameters: Flour SRC sucrose / Flour SRC Sodium carbonate / Flour SRC Lactic acid / Flour SRC Water: unit not given here
Protocol: Solvent Retention Capacity (SRC) serves as a practical test to monitor the function of specific flour components, such as the amount of damaged starch. The SRC assay method used was adapted and modified from AACC method 56-10, according to the following procedure:
• 50 ml centrifuge tubes+caps • 5% weight sodium carbonate solvent • Centrifuge (IEC, Centra GP8, 269 rotor, 2130 rpm) Procedure: • 1. Weigh 50 ml centrifuge tubes+caps (for special tubes weight O-ring seals) • 2. Weigh and add 5.00 g of bran-germ mixture to each tube (determine moisture content of mixture) • 3. Add 25 g of solvent (pre-weighed solvent aliquots) to each tube • 4. Allow it to hydrate for 20 min, shaking every 5 min (5, 10, 15, 20) • 5. Centrifuge for 15 min at 1000×g • 6. Decant supernatant and drain 5 min at 45° angle and 5 min at 90° angle. • 7. Put cap back and weigh pellet

[4] = Whole grain flour pH in 10% slurry; format: physicochemical
[5] = Flour moisture (AACC Method 44-15A); format: physicochemical; details: coarse bran fraction before recombining
Protocol: Whole grain flour pH was measured in a 10% slurry (one part flour to 9 part water) using a Corning pH meter 360i equipped with an A-58905-66 High-performance combination pH electrode. Ash is determined according to AOAC official method 923.03 for measuring ash in flour. Flour moisture was determined according to AACC Method 44-15A.

[6] = AACC 10-53 Cookie Test Baking; details: lactic acid 3000 ppm, green tea extract 7000 ppm
Text: AACC 10-53 Cookie Test Baking Method was designed at Nabisco Biscuit Company for evaluation of ingredient functionality and predictive correlation between sensory and mechanical texture analysis (mechanical texture analysis by TAXT2 Texture analyzer 3 point bend or puncture test). The test is an improvement over AACC 10-52 Sugar-Snap Cookie Test Baking Method as confirmed by USDA Soft Wheat Quality Lab (Wooster Ohio). The AACC 10-53 test was adopted as the official method of the American Association of Cereal Chemists after collaborative testing by the Soft Wheat Quality Committee in 1992. The equipment, cookie dough composition, mixing procedure, baking procedure, measurement procedure, etc. used in the test are: The Standard Formulation AACC 10-53 Single Batch to Make 4 Test Cookies is: [table] [table] The general mixing procedure used is: The baketime is defined as the time required to produce a weight loss of 13.85% during baking of the formulation at 400 F. Portion four 60 g pieces of dough with minimum deformation and place on cookie sheet. Lay rolling pin across gauge bars of cookie sheet allowing weight of pin to compress the dough pieces without additional compressive force. Pick up rolling pin and place on gauge bars at end of cookie sheet, and roll only once away from you. Cut cookies with 60 mm cutter, and carefully lift scrap dough with small spatula. […]

[7] = after 30 days at 92 F, flour at about pH=4.5
[8] = lactic acid 3000 ppm, green tea extract 7000 ppm

SMILES: Cl [hydrochloric acid]
Flour fatty acid formation [1, 7]: 746 ppm
Lipase activity ([2]; 40 min acid pre-treat 0.02 g/15 ml, 0.036 M, pH 1.5): 0 Units/μl

Lipase activity ([2]; 40 min acid pre-treat 0.005 g/15 ml, 0.006 M, pH 2.8): 5.33 Units/μl
SMILES: CC(=O)O [Acetic acid, acetic acid]

SMILES: O=P(O)(O)O [phosphoric acid]
Flour fatty acid formation [1, 7]: 1592 ppm

SMILES: CC(O)C(=O)O (stereo not shown) [Lactic acid, lactic acid]
Flour fatty acid formation ([1]; after 28 days at 92 F, about 9000 ppm lactic acid concentration and 4.5 pH): 1425 ppm
Flour fatty acid formation [1, 7]: 1382 ppm
Whole grain flour fatty acid content after storage ([1]; storage at 82 F, compared to control, Example 9): reduced compared to control
FFA (ppm) 3 week at 28 C. ([1]; whole grain flour, lactic acid 3000 ppm, green tea extract 7000 ppm (dry weight/initial kernel weight)): 2628 ppm and 2364 ppm
flour strength as measured by lactic acid SRC value ([3]; as a function of temper time and amount of lactic acid added, FIG. 7): did not decrease flour strength
Flour SRC Lactic acid [3, 8]: 69.11 and 69.40
Flour SRC Sodium carbonate [3, 8]: 76.58 and 78.67
Flour SRC Water [3, 8]: 59.53 and 60.35
Flour SRC sucrose [3, 8]: 95.77 and 94.23
break flour pH ([4]; break flour fraction before recombining): 4.88
fine bran pH ([4]; fine bran fraction before recombining): 4.52
Flour pH [4, 8]: 5.54 and 5.56
Flour pH ([4]; soft red whole grain flour from treated wheat): 5.6
coarse bran moisture [5]: 14.49
Lipase activity ([2]; 40 min acid pre-treat 0.02 g/15 ml, 0.015 M, pH 2.85): 6.45 Units/μl
Lipase activity ([2]; 40 min acid pre-treat 0.04 g/15 ml, 0.030 M, pH 2.57): 5.8 Units/μl
Lipase activity ([2]; 40 min acid pre-treat 0.08 g/15 ml, 0.059 M, pH 2.48): 4.15 Units/μl
Cookie dough pH [6]: 7.65 and 7.52
